{"source": "patent US12629368B2", "about": "“Use of N-(3-(4-(3-(diisobutylamino)propyl)piperazin-1-yl)propyl)-1H-benzo[d]imidazol-2-amine sulphate salts and solvates thereof for the treatment of motor neuron diseases and neuromuscular junction disorders” (ALZPROTECT, priority 2020, dated 2026)", "key": {"ALS [1]": {"tested_on": "ALS", "settings": "injected intravenously, small subset of people with ALS, phase 3; cited from earlier work"}, "[2]": {"tested_on": "spinal cord/muscle neuromuscular junctions", "assay": "Co-culture of human myoblasts and rat spinal cord explants injured with glutamate, neuromuscular junctions (Example 4)", "assay_type": "cell-based, human muscle cell line", "settings": "300 nM, glutamate 60 μM 20 min, 48 h"}, "[3]": {"tested_on": "SOD1^G93A Tg rat spinal cord motor neurons", "assay": "Primary culture of SOD1G93A Tg rat spinal cord motor neurons injured with glutamate (Example 3)", "assay_type": "cell-based", "procedure": "The day of the dissection (from pregnant females at 14 days of gestation), a piece of each embryo head (˜3 mm^3) was placed in a 2 mL tube free DNase with a new scalpel. The DNA was extracted with the SYBR Green Extract-N-Amp tissue PCR kit (Sigma Aldrich). Briefly, 120 μL of extraction solution was put on each piece of embryo heads. Then, they were incubated for 10 min at room temperature. At the end of this incubation period, the heads were incubated for 5 min at 95° C. Immediately after this last incubation, 100 μL of neutralizing solution was added; each DNA extract was diluted at 1/40 and stored at +4° C. until use. SOD1^G93A gene was determined using genomic fragment with human SOD1 primers (5′-[…]-3′; 5′-[…]-3′). The SOD1 primers were diluted at 3 μM in sterile ultrapure water. Briefly, a mix for PCR was prepared with ultrapure water (4 μL per sample), primer at 3 μM (2 μL per sample) and Master Mix (10 μL per sample). In a PCR 96 wells plate, 16 μL of PCR mix was added in each well. 4 μL of each diluted DNA was added according to a plan deposit.\nRat spinal cord (SC) motor neurons were cultured as described by Martinou et al., Neuron. 1992, April; 8(4), 737-44 and Wang et al. Hum. Mol. Genet., 2013 Dec. 1; 22(23), 4706-19. Pregnant female rats of 14 days of gestation were killed by cervical dislocation. Fetuses were collected and immediately placed in ice-cold L15 Leibovitz medium with a 2% penicillin (10,000 U/mL) and streptomycin (10 mg/mL) solution (PS) and 1% bovine serum albumin (BSA). Each fetus was dispatched on numerating petri dish (35 mm of diameter). Tail of fetuses were cut, placed on 1.5 ml tube free DNAase; the DNA was extracted with the Extract-N-Amp Tissue Kit.\nThe genotyping of SOD tg fetuses was performed with the kit Fast SYBR Green Master Mix. This genotyping was made during the dissection of spinal cord, thus at the end of the dissection culture of SOD Tg spinal cord and WT spinal cord was done. Spinal cords were removed and placed in ice-cold medium of Leibovitz (L15). SC were treated for 20 min at 37° C. with a trypsin-EDTA solution at a final concentration of 0.05% trypsin and 0.02% EDTA. The dissociation was stopped by addition of Dulbecco's modified Eagle's medium (DMEM) with 4.5 g/liter of glucose, containing DNAse I grade II (final concentration 0.5 mg/mL) and 10% fetal calf serum (FCS). Cells were mechanically dissociated by three forced passages through the tip of a 10-ml pipette. Cells were then centrifuged at 180×g for 10 min at +4° C. on a layer of BSA (3.5%) in L15 medium. […] Viable cells were counted in a Neubauer cytometer, using the trypan blue exclusion test. […]"}, "[4]": {"tested_on": "rat primary motor neurons", "assay": "Rat primary motor neurons injured with glutamate, 24 h pre-treatment + 24 h post-injury treatment (Example 2)", "assay_type": "cell-based", "procedure": "(§1) Rat motor neurons (MN) were cultured as previously described by Martinou et al., Neuron. 1992, April; 8(4), 737-44 and Wang et al. Hum. Mol. Genet., 2013 Dec. 1; 22(23), 4706-19. Pregnant female rats of 14 days gestation (Rats Wistar; Janvier Labs France) were killed using a deep anesthesia with CO2 followed by cervical dislocation. Then, fetuses were removed from the uterus and immediately placed in ice-cold L15 Leibovitz medium with a 2% penicillin (10,000 U/mL) and streptomycin (10 mg/mL) solution (PS) and 1% bovine serum albumin (BSA). Spinal cords were treated for 20 min at 37° C. with a trypsin-Ethylenediaminetetraacetic acid (EDTA) solution at a final concentration of 0.05% trypsin and 0.02% EDTA. The dissociation was stopped by the addition of Dulbecco's modified Eagle's medium (DMEM) with 4.5 g/liter of glucose, containing DNAse I grade II (final concentration 0.5 mg/mL) and 10% fetal calf serum (FCS). Cells were mechanically dissociated by three forced passages through the tip of a […]. Cells were then centrifuged at 180×g for 10 min at +4° C. on a layer of BSA (3.5%) in L15 medium. The supernatant was discarded, and the pellet was resuspended in a defined culture medium consisting of Neurobasal medium with a 2% solution of B27 supplement, 2 mmol/liter of L-glutamine, 2% of PS solution, and 10 ng/mL of brain-derived neurotrophic factor (BDNF). Viable cells were counted in a Neubauer cytometer, using the trypan blue exclusion test. The cells were seeded at a density of 20,000 per well in 96-well plates (immunostaining) precoated with poly-L-lysine and cultured at 37° C. in an air (95%)-CO2 (5%) incubator. The medium was changed every 2 days. The motor neurons were injured with glutamate after 13 days of culture.\n(§2) After 14 or 15 days of culture (48 h after the glutamate injury), the cell culture supernatant was collected and the spinal cord MNs were fixed by a cold solution of ethanol (95%) and acetic acid (5%) for 5 min at −20° C. After permeabilization with 0.1% of saponin, cells were blocked for 2 h with PBS containing 1% fetal calf serum. Then, cells were incubated with: • a) mouse monoclonal antibody anti-microtubule associated protein 2 (MAP-2) at dilution of 1/400 in PBS containing 1% fetal calf serum and 0.1% of saponin. This antibody binds specifically MAP-2 present in cell bodies and neurites of all MNs. […] Nuclei of neurons were labeled by a fluorescent marker (Hoechst solution). • b) Rabbit polyclonal antibody anti-TDP43 at dilution of 1/100 in PBS containing 1% fetal calf serum and 0.1% of saponin. Cytoplasmic localization of TDP43 was investigated.\nAll images were taken under the same conditions (exposition time, gain and laser intensity). Analysis of different endpoints, were automatically performed using Custom Module Editor (Molecular Devices). Motoneurons (MAP-2) were distinguished from interneurons (staining MAP-2) using the following morphological criteria: a cell body diameter […] and the presence of a minimum of three neuritic processes (Ferraiuolo et al. Brain 2011: 134; 2627-2641).\n(§3) The endpoints were: • survival of MN (number of MN) • total neurite outgrowth of MN (expressed in μm) • TDP43 (extranuclear, eTDP43) in MN (expressed as area eTDP43-μm^2/number of MN) Statistical Analysis\nThe culture was carried out as described in example 1.\nOn day 12 of culture, primary motor neurons were treated with the sulphate salt for 24 hours. […]"}, "[5]": {"tested_on": "primary culture of rat spinal motor neurons", "assay": "Rat primary spinal motor neurons injured with glutamate, 48 h co-incubation (Example 1)", "assay_type": "cell-based", "settings": "48 h incubation", "procedure": "as §1\nOn day 13 of culture, glutamate was added to a final concentration of 5 μM diluted in control medium in presence of the sulphate salt for 20 min. After 20 min, glutamate was washed and fresh culture medium with the sulphate salt was added for 48 hours.\nas §2\nAll images were taken under the same conditions (exposition time, gain and laser intensity). Analysis of different endpoints, were automatically performed using Custom Module Editor (Molecular Devices). […]\nas §3\nAll values are expressed as mean+/−SEM. […]"}, "ALS [6]": {"tested_on": "ALS", "settings": "oral drug, ALS patients; cited from earlier work"}, "[7]": {"settings": "dose dependence, 5 μM glutamate 20 min, 48 h"}}}
{"molecule": "CC1=NN(c2ccccc2)C(=O)C1", "note": "[Edavarone]", "values": [{"measurement": "Decline of ALS Functional Rating Scale-Revised score compared with placebo", "setting": "ALS [1]", "result": "significantly smaller decline"}]}
{"molecule": "CC(C)CN(CCCN1CCN(CCCNc2nc3ccccc3[nH]2)CC1)CC(C)C.O=S(=O)(O)O.O=S(=O)(O)O", "note": "[N-(3-(4-(3-(diisobutylamino)propyl)piperazin-1-yl)propyl)-1H-benzo[d]imidazol-2-amine di-sulphate]", "values": [{"measurement": "Neuroprotective effect on neuromuscular junctions and neurite network against glutamatergic stress", "setting": "[2]", "result": "successfully protected the neuromuscular junctions and the neurite network"}, {"measurement": "Number of NMJs", "setting": "[2]", "result": "increased"}, {"measurement": "Total area of NMJs", "setting": "[2]", "result": "increased"}, {"measurement": "Total neurite network", "setting": "[2]", "result": "increased"}, {"measurement": "Protective effects compared with Riluzole and Edaravone", "setting": "[3]; 300 nM versus Riluzole 1 μM and Edaravone 5 μM", "result": "greater than those of Riluzole or Edaravone"}, {"measurement": "Neuroprotection (number of MNs, neurite network, TDP-43 distribution)", "setting": "[3]; all investigated doses, 5 μM glutamate 20 min, 48 h", "result": "neuroprotective"}, {"measurement": "Protective effect on neuronal survival", "setting": "[3]; [7]", "result": "dose-dependent"}, {"measurement": "Protective effect on the distribution of TDP-43", "setting": "[3]; [7]", "result": "dose-dependent"}, {"measurement": "Effect on motor neuron survival compared to the glutamate condition", "setting": "[4]; 3 nM to 30 nM, 24 h pre-incubation + 24 h post-injury", "result": "positive and significant effect on survival"}, {"measurement": "Extranuclear TDP-43 (abnormal distribution)", "setting": "[4]; 10 nM to 30 nM, glutamate alone eTDP-43 signal 128% of control", "result": "able to fully prevent the abnormal distribution of TDP-43"}, {"measurement": "Neurite network integrity (mean length, percentage of control)", "setting": "[4]; 30 nM (maximal effect), 24 h pre-incubation + 24 h post-injury", "result": 91, "unit": "%"}, {"measurement": "Motor neuron survival (mean survival, percentage of control)", "setting": "[4]; 30 nM (maximal effect), 24 h pre-incubation + 24 h post-injury, glutamate alone 65%", "result": 87, "unit": "%"}, {"measurement": "Effect on neurite network (protection from glutamate damage)", "setting": "[4]; all investigated doses, 24 h pre-incubation + 24 h post-injury", "result": "able to protect the neurite network from glutamate damage"}, {"measurement": "Effect on motor neuron survival compared to the glutamate condition", "setting": "[5]; 10 nM to 30 nM, 5 μM glutamate 20 min", "result": "positive and significant effect on survival"}, {"measurement": "Neurite network integrity (mean length, percentage of control)", "setting": "[5]; 30 nM (maximal effect), 5 μM glutamate 20 min", "result": 80, "unit": "%"}, {"measurement": "Motor neuron survival (mean survival, percentage of control)", "setting": "[5]; 30 nM (maximal effect), 5 μM glutamate 20 min, glutamate alone 55%", "result": 82, "unit": "%"}, {"measurement": "Extranuclear TDP-43 (cytoplasmic accumulation)", "setting": "[5]; 10 and 30 nM, 5 μM glutamate 20 min", "result": "able to prevent the accumulation of TDP-43 in the cytoplasm"}, {"measurement": "Effect on neurite network after glutamate injury", "setting": "[5]; all investigated doses", "result": "able to improve the neurite network after glutamate injury"}]}
{"molecule": "Nc1nc2ccc(OC(F)(F)F)cc2s1", "note": "[Riluzole]", "values": [{"measurement": "Effect on motor and respiratory functions", "setting": "ALS [6]", "result": "no effect"}]}
